Counter-ions that a name gives are not always drawn. Like-named read-outs stand apart in the source and are kept apart here.
Tests used:
[1] = tested on: R17; assay: R17 bacteriophage inactivation screen, varying compound concentration; type: cell-based; settings: for R17 Log Kill 8 uM / R17 Log Kill 16 uM / R17 Log Kill 32 uM: Table 5, starting titer approx. 7.2 logs
Description: The assay used to predict pathogen inactivation efficiency and to determine nucleic acid binding of the photoreactive binding compounds of the present invention was that in which a bacteriophage, R17, in solution with the desired substrate was irradiated. The ability of the phage to subsequently infect bacteria and inhibit their growth was measured. The bacteriophage was selected for its relatively accessible nucleic acid such that the culture growth inhibition would accurately reflect nucleic acid damage by the test compounds. The bacteriophage assay for nucleic acid binding to test compounds offers a safe and inexpensive procedure to identify compounds likely to display efficient pathogen inactivation. […] An aliquot (0.5 mL) was transferred to a 1.5 mL, snap-top polyethylene tube. An aliquot (0.004-0.040 mL) of the test compound stock solution prepared in water, ethanol or dimethylsulfoxide at 0.80-8.0 mM was added to the tube. Compounds were tested at concentrations between 4 μM and 320 μM. (AMT is commercially available from HRI, Inc., Concord, Calif.; 8-MOP is commercially available from Sigma, St. Louis, Mo.). The tubes were placed in a light device as described in EXAMPLE 1 and irradiated for between 1 and 10 minutes. […] To make the dilutions, a 0.100 mL aliquot of the irradiated solution of phage and test compound was added to the first dilution tube of 0.4 mL of media then 0.020 mL of this solution was added to the second tube of 0.5 mL medium (1:25). The second solution was then diluted serially (1:25) into the remaining tubes. […] After the top agar hardened, the plates were incubated at 37° C. overnight. The plaque forming units were then counted the following morning and the titer of the phage remaining after phototreatment was calculated based on the dilution factors. The following controls were run: the “phage only” in which phage was not treated with test compound and not irradiated (listed as “starting titer” in the tables below); the “UV only” in which the phage was irradiated in the absence of test compound; and the “dark” control in which the phage/test compound solution was not irradiated before it was diluted and plated.

[2] = tested on: cell-free virus (HIV); type: cell-based; settings: for HIV Log Kill 16 μM / HIV Log Kill 32 μM / HIV Log Kill 64 μM: 1 minute irradiation
Description: Pathogen inactivation efficiency of several compounds of the present invention was evaluated by examining the ability of the compounds to inactivate cell-free virus (HIV). Inactivation of cell-free HIV was performed as follows.
As in the R17 assay, small aliquots of the compounds listed in TABLES 8 and 9, below, at the concentrations listed in the table, were added to stock HIV-1 to a total of 0.5 mL. The stock HIV (10^5-10^7 plaque forming units/mL) was in DMEM/15% FBS. […] Controls included HIV-1 stock only, HIV-1 plus UVA only, and HIV-1 plus the highest concentration of each psoralen tested, with no UVA. Post irradiation, all samples were stores frozen at −70° C. until assayed for infectivity by a microtiter plaque assay. Aliquots for measurement of residual HIV infectivity in the samples treated with a compound of the present invention were withdrawn and cultured.
Residual HIV infectivity was assayed using an MT-2 infectivity assay. […] The assay medium was 85% DMEM (with a high glucose concentration) containing 100 μg of streptomycin, 100 U of penicillin, 50 μg of gentamicin, and 1 μg of amphotericin B per mL, 15% FBS and 2 μg of Polybrene (Sigma Chemical Co., St. Louis, Mo.) per mL. Test and control samples from the inactivation procedure were diluted in 50% assay medium and 50% normal human pooled plasma. The samples were serially diluted directly in 96-well plates (Corning Glass Works, corning, N.Y.). The plates were mixed on an oscillatory shaker for 30 seconds and incubated at 37° C. in a 5% CO2 atmosphere for 1 to 18 hours. […] After an additional 1 hour of incubation at 37° C. in 5% CO2, 0.075 mL of assay medium containing 1.6% SeaPlaque agarose (FMC Bioproducts, Rockland, me.) and prewarmed to 38.5° C. was added to each well. The plates were kept at 37° C. for a few minutes until several plates had accumulated and then centrifuged in plate carriers at 600×g for 20 minutes in a centrifuge precooled to 10° C. In the centrifuge, cell monolayers formed prior to gelling of the agarose layer. The plates were incubated for 5 days at 37° C. in 5% CO2 and stained by the addition of 0.05 mL of 50 μg/mL propidium iodide (Sigma Chemical Co.) in phosphate-buffered saline (pH 7.4) to each well. After 24 to 48 hours, the red fluorescence-stained microplaques were visualized by placing the plates on an 8,000 μW/cm^2 304 nm UV light box (Fotodyne, Inc., New Berlin, Wis.). The plaques were counted at a magnification of ×20 to ×25 through a stereomicroscope. “n” represents the number of runs for which the data point is an average.

[3] = tested on: Duck Hepatitis B Virus (DHBV); assay: Inactivation of Duck Hepatitis B Virus in platelet concentrate, PCR amplification read-out; settings: 5 J/CM^2 UVA
Description: This example describes the protocol for inactivation of another virus, Duck Hepatitis B Virus (DHBV), using compounds of the present invention. DHBV in duck yolk was added to platelet concentrate (PC) to a final concentration of 2×10^7 particles per mL and mixed by gentle rocking for ≧15 min. […] Samples, including controls without added psoralen, were irradiated with 5 J/CM^2 UVA, with mixing at 1 J/cm^2 increments. After irradiation, leukocytes and platelets were separated from virus by centrifugation. […] Samples were extracted with phenolchloroform and chloroform, followed by ethanol precipitation. […] PCR amplicons were generated using primers pairs DCD03/DCD05 (127 bp), DCD03/DCD06 (327 bp) and DCD03/DCD07 (1072 bp). PCR was performed in a standard PCR buffer containing 0.2 mM each deoxyribonucleoside 5′-triphosphates (dATP, dGTP, dCTP, and dTTP), 0.5 […], and 0.5 units Taq polymerase per […]. 30 cycles of amplification were performed with the following thermal profile: 95° C. 30 sec, 60° C. 30 sec, 72° C. 1 min. The amplification was followed by a 7 min incubation at 72° C. to yield full length products. [[…]-^32P] dCTP was added at an amount of […] in order to detect and quantify the resulting products. Products were separated by electrophoresis on denaturing polyacrylamide slab gels and counted. The absence of signal in a given reaction was taken to indicate effective inactivation of DHBV.

[4] = tested on: TA1537; assay: Ames assay, dark mutagenicity, strain TA1537
Description: (§1) In this example the compounds of the present invention are tested for their dark mutagenicity using an Ames assay. The procedures used for the Salmonella mutagenicity test as described in detail by Maron and Ames were followed exactly. Maron, D. M. and B. N. Ames, Mutation Research 113:173 (1983). A brief description for each procedure is given here. The tester strains TA97a, TA98, TA100, TA102, TA1537 and TA1538 were obtained from Dr. Ames. TA97a, TA98, TA1537 and TA1538 are frameshift tester strains. TA100 and TA102 are base-substitution tester strains. Upon receipt each strain was cultured under a variety of conditions to confirm the genotypes specific to the strains.
(§2) The first tests done with the strains were to determine the range of spontaneous reversion for each of the strains. With each mutagenicity experiment the spontaneous reversion of the tester strains to histidine independence was measured and expressed as the number of spontaneous revertants per plate. This served as the background controls.
(§3) For all experiments, the pre-incubation procedure was used. In this procedure one vial of each tester strain was thawed and 20 μL of this culture was added to 6 mL of Oxoid Nutrient Broth #2. This solution was allowed to shake for 10 hours at 37° C. In the pre-incubation procedure, 0.1 mL of this overnight culture was added to each of the required number of sterile test tubes. To half of the tubes 0.5 mL of a 10% S-9 solution containing Aroclor 1254 induced rat liver extract (Molecular Toxicology Inc., Annapolis, MD), and MgCl2, KCl, glucose-6-phosphate, NADP, and sodium phosphate buffer (Sigma, St. Louis. Mo.) were added. To the other half of the tubes 0.5 mL of 0.2M sodium phospate buffer, pH 7.4, was used in place of the S-9 mixture (the -S9 samples) Finally 0.1 mL of the test solution containing either 0.0.1, 0.5, 1, 5, 10, 50, 100, 250, or 500 μg/mL of the test compound was added. The 0.7 mL mixture pre-incubated while shaking for 20 minutes at 37° C. After shaking, 2 mL of molten top agar supplemented with histidine and biotin were added to the 0.7 mL mixture and immediately poured onto a minimal glucose agar plate (volume of base agar was 20 ml.). The top agar was allowed 30 minutes to solidify and then the plates were inverted and incubated for 44 hours at 37° C. After incubation the number of revertant colonies on each plate were counted. […] (“n” represents the number of replicates performed for each data point.)
(§4) Maron and Ames (1983) describe the conflicting views with regard to the statistical treatment of data generated from the test.

[5] = tested on: TA1538; assay: Ames assay, dark mutagenicity, strain TA1538
Description: as §1, §2, §3, §4

[6] = tested on: Salmonella tester strains; assay: Ames assay, dark mutagenicity, overall over tester strains; settings: for mutagenicity as defined by the Ames test: two-fold or greater increase in revertants above background and dose dependent response
Description: as §1, §2, §3, §4

[7] = tested on: DNA; settings: photoactivated binding; NCI Monograph 66:21 (1984); cited from earlier work
[8] = tested on: TA102; assay: Ames assay, dark mutagenicity, strain TA102
Description: as §1, §2
For all experiments, the pre-incubation procedure was used. In this procedure one vial of each tester strain was thawed and 20 μL of this culture was added to 6 mL of Oxoid Nutrient Broth #2. This solution was allowed to shake for 10 hours at 37° C. […] After incubation the number of revertant colonies on each plate were counted. […]

[9] = tested on: R17; assay: R17 inactivation at constant concentration, varying doses of UV light; type: cell-based, bacteriophage R17; settings: UV doses 1.0 to 3.0 J/cm^2, FIGS. 11-17
Description: Compounds of the present invention were also tested at a constant concentration for varying doses of UV light. Three sets of 1.5 mL tubes were prepared containing 0.6 mL aliquots of R17 in DMEM (prepared as described above). The compound tested was added at the desired concentration and the samples were vortexed. The samples were then irradiated at intervals of 1.0 J/cm^2, until 3.0 J/cm^2 was reached. Between each 1.0 J/cm^2 interval, 100 μL was removed from each sample and placed in the first corresponding dilution tube, then five sequential dilutions were performed for each compound tested, at all 3 irradiation doses, as described above in this example.
Then 50 μL of Hfr 3000 bacteria was added to each tube, 3 mL of top agar was added and the tube contents were vortexed. The contents of each tube was poured into its own LB plate and the plates were incubated overnight at 37° C. Plaques were counted by visual inspection the following morning.

[10] = Table 6, 1 minute irradiation = 1.2 J/cm^2, starting titer approx. 7.1 logs
[11] = Table 7, 1 minute irradiation, starting titer approx. 7.1 logs
[12] = Table 8, HIV starting titer approximately 5 logs
[13] = Table 9, HIV starting titer approximately 5.4 logs

For Cc1oc2c(C)c3oc(=O)cc(C)c3cc2c1CNCCN (as salt: hydrochloride) [Compound 1, 4′-(4-amino-2-aza)butyl-4,5′,8-trimethylpsoralen dihydrochloride], the melting point was 320 to 322 °C (dec.).
In the case of Cc1oc2c(C)c3oc(=O)cc(C)c3cc2c1CNCCCN (as salt: hydrochloride) [Compound 5, 4′-(5-amino-2-aza)pentyl-4,5′,8-trimethylpsoralen dihydrochloride], the melting point is reported as 288 °C (dec.).
With Cc1oc2c(C)c3oc(=O)cc(C)c3cc2c1CN [AMT, 4′-Aminomethyl-4,5′,8-trimethylpsoralen, reference compound] the “R17 Log Kill 8 uM” value ([1]; 8 uM, 1 minute irradiation) was 2.7 log, the “R17 Log Kill 16 uM” value ([1]; 1 minute irradiation) was 4.6 log and the “R17 Log Kill 32 uM” value ([1]; 1 minute irradiation) was >6.2 log. For the same compound, the “R17 log kill 16 uM” value [1, 10] was 4.5 log, the “R17 log kill 32 uM” value [1, 10] was 4.8 log and the “R17 log kill 16 uM” value [1, 11] was >6 log. For the same compound, the “R17 log kill 32 uM” value [1, 11] was >6 log, the “HIV Log Kill 16 μM” value [2, 12] was 1.4 log and the “PCR amplification of the 1072 bp amplicon” value ([3]; platelet concentrate) was “a signal could be detected”. For the same compound, the “PCR amplification of the 1072 bp amplicon” value ([3]; 70 and 100 mM levels, platelet concentrate) was “inhibited PCR amplification”, the “dose at which frameshift mutagenicity was shown” value ([4]; TA1537) was 5 μg/plate and the “revertant colonies per plate” value ([4]; TA1537 −S9, 100 μg/plate) was 2058. For the same compound, the “dose at which frameshift mutagenicity was shown” value ([5]; TA1538) was 1 μg/plate, the “revertant colonies per plate” value ([5]; TA1538 +S9, 0.5 μg/plate) was 13 and the “revertant colonies per plate” value ([5]; TA1538 +S9, 1 μg/plate) was 37. For the same compound, the “revertant colonies per plate” value ([5]; TA1538 +S9, 5 μg/plate) was 177, the “revertant colonies per plate” value ([5]; TA1538 +S9, 10 μg/plate) was 255 and the “revertant colonies per plate” value ([5]; TA1538 −S9, 0.5 μg/plate) was 4. For the same compound, the “revertant colonies per plate” value ([5]; TA1538 −S9, 1 μg/plate) was 4, the “revertant colonies per plate” value ([5]; TA1538 −S9, 5 μg/plate) was 13 and the base-substitution mutagenicity ([6]; base-substitution tester strains TA100 and TA102) was “no significant base-substitution mutations”. The “concentration at which mutagenicity was displayed” value ([6]; comparison with Compound 6) was 5 μg/plate and the “DNA base pairs per adduct (up to 1 AMT adduct per)” value [7] was 3.5 DNA base pairs.
In the case of Cc1oc2c(C)c3oc(=O)cc(C)c3cc2c1CCN [Compound 3, 4′-(2-aminoethyl)-4,5′,8-trimethylpsoralen Hydrochloride], the “R17 Log Kill 8 uM” value ([1]; 8 uM, 1 minute irradiation) is reported as >6.2 log, the “R17 Log Kill 16 uM” value ([1]; 1 minute irradiation) is reported as >6.2 log and the “R17 Log Kill 32 uM” value ([1]; 1 minute irradiation) is reported as >6.2 log. For the same compound, the “R17 log kill 8 uM” value ([1]; Table 6, 8 uM, 1 minute irradiation = 1.2 J/cm^2, starting titer approx. 7.1 logs) was 5.6 log, the “R17 log kill 16 uM” value [1, 10] was >6.1 log and the “HIV Log Kill 32 μM” value [2, 12] was 2.7 log. The “HIV Log Kill 64 μM” value [2, 12] was >3.8 log, the “HIV inactivation activity compared with AMT” value ([2]; concentrations of 64 μM of compound or higher) was “significantly more active than AMT” and the “mutagenicity as defined by the Ames test” value [6] was “no mutagenicity”.
With Cc1oc2c(C)c3oc(=O)cc(C)c3cc2c1COCCCN [Compound 4, 4′-(5-amino-2-oxa)pentyl-4,5′,8-trimethylpsoralen] the “R17 log kill 16 uM” value [1, 10] was 2.3 log, the “R17 log kill 32 uM” value [1, 10] was 4.3 log and the “R17 log kill 64 uM” value ([1]; Table 6, 64 uM, 1 minute irradiation = 1.2 J/cm^2, starting titer approx. 7.1 logs) was >6.1 log. The “HIV Log Kill 32 μM” value [2, 12] was 2.2 log, the “HIV Log Kill 64 μM” value [2, 12] was >3.6 log and the “mutagenicity as defined by the Ames test” value [6] was “no mutagenicity”.
For COc1c2occc2cc2ccc(=O)oc12 [Compound 8-MOP, 8-Methoxypsoralen], the “dose at which the only mutagenic response (weak base-substitution mutagen) was detected” value ([8]; TA102) was 500 μg/plate.
With Cc1cc(=O)oc2c(C)c3oc(CNCCCCN)c(C)c3cc12.Cl.Cl [Compound 17, 5′-(6-Amino-2-aza)hexyl-4,4′,8-trimethylpsoralen Dihydrochloride] the “R17 inactivation compared with AMT” value [9] was “more efficient at inactivating R17 than was AMT”, the “HIV Log Kill 16 μM” value [2, 13] was 1.2 log and the “HIV Log Kill 64 μM” value [2, 13] was 3.4 log.
For Cc1oc2c(C)c3oc(=O)cc(C)c3cc2c1COCCN [Compound S-59], the “PCR of the smaller amplicons compared with AMT” value ([3]; 127 bp and 327 bp amplicons, same concentrations) was “inhibited PCR of the smaller amplicons better than did AMT” and the “PCR of the 1072 bp amplicon” value ([3]; all concentrations (35, 70, and 100 mM), platelet concentrate) was “complete inhibition of PCR”.
For OO [hydrogen peroxide], the “revertant colonies per plate, positive control” value ([8]; Salmonella typhimurium, 44 h, 100 μg/plt, pH 7.4) was 660.

From patent publication US6420570B1, “Psoralen compounds” (priority 1993, dated 2002)
